pEC50, pIC50: −log10 of the molar value. Starred links: 1 amine or outer side, 2 acyl side, 3 side chain; linkers in the order of their positions; H or OH if unused. Positions of bridges follow the written chain, without caps; N, C: chain ends. Non-standard residues stand in square brackets, D forms with d. Residues, ends and D or L forms follow the SMILES beside them. dPhe(4-Cl) = N[C@H](Cc1ccc(Cl)cc1)C(=O)O; X1 = NC(N)NCCC[C@@H](N[*:1])C(=O)[*:2]; X3 = NCNCCC[C@@H](N[*:1])C(=O)[*:2]; X2 = NCNCCC[C@H](N[*:1])C(=O)[*:2]; Nle = CCCC[C@H](N)C(=O)O
Experiments:
[1] = molecular target: T1, human MC1R (Homo sapiens, UniProt Q01726); experiment: Functional human melanocortin receptor 1 assay (cAMP, HTRF); type: cell-based; conditions: cAMP induction, BHK cells expressing the human MC1 receptor, 30 min, 25° C.
T1 construct: expressed in transfected cells
Experimental: (§1) In order to assess the potency of the compounds on human MC1R and human MC4R cAMP signalling was measured.
(§2) cAMP induction was measured by c-AMPdynamic2 assay, HTRF 62AM4PEC system from CisBio for the human MC1R and human MC4R according to the protocol provided by the vendor. BHK cells expressing the human MC1 or MC4 receptor were generated by stable transfection with expression vectors encoding the cDNA of either MC1R or MC4R. In details; 25 μl compound—or standard solution were added in the respective wells.
(§3) Compound was reconstituted in buffer (DMEM w/o phenol red, 10 mM Hepes, lx Glutamine, 0.1% OV-albumin1, 1 mM IBMX) and serially diluted starting at 2 μM, 10-fold seven times. Dilutions were carried out in the same aforementioned buffer to the desired working concentration ranges (2× higher than the final concentration). 25 μl cell solution was then added and allowed to incubate for 30 min while lightly shaking, at 25° C. […] The provided components for the assay were reconstituted according to the CisBio assay protocol “3.1 supplied reagents and preparation procedure” in MilliQ purification system H2O and diluted 1:20 in lysis buffer. 25 μl cAMP-d2 and 25 μl Cryptate conjugate were added to all wells. Plates were centrifuged at 1500 rpm for 30 sec and incubated for 1 h, lightly shaking, at 25° C. in a hotel stacker. The plates were read on Mithras LB 940 provided by Berthold Technologies
(§4) The data were analysed by non-linear regression analysis of binding curves, using the Windows™ program GraphPad™ Prism (GraphPad Software, USA). EC50 is a measure of the potency of a given compound and is defined herein as the half maximal effective concentration of the compound which induces a response (cAMP induction) halfway between the baseline and maximum response value after a fixed reaction time. Data listed as >, indicate that the highest concentration tested had no effect, where “no effect” is defined as the highest compound concentration with agonistic effect 5% of maximal response of the reference compound NDP-alpha-MSH. […]

[2] = molecular target: T2, human MC4R (Homo sapiens, UniProt P32245); experiment: Functional human melanocortin receptor 4 assay (cAMP, HTRF); type: cell-based; conditions: cAMP induction, BHK cells expressing the human MC4 receptor, 30 min, 25° C.
T2 construct: expressed in transfected cells
Experimental: as §1, §2, §3, §4

[3] = molecular target: T1, human MC1R; experiment: MC1 receptor binding assay (SPA, 125I-NDP-α-MSH); conditions: displacement of 125I-NDP-α-MSH, membranes from BHK cells stably expressing the human MC1 receptor, read-out: MC1R binding IC50
Experimental: In Vitro ^125I-NDP-α-MSH Binding to Recombinant BHK Cells Stably Expressing the Human MC1 Receptor (SPA Binding Assay).
In order to assess the binding affinity of the selected compounds for the human MC1R, competitive binding assays were performed with radiolabelled NDP-alpha MSH (^125I-NDP-α-MSH) and membranes from BHK cells stably expressing the human MC1 receptor.
(§5) The BHK cell membranes are prepared from frozen or fresh cells that are homogenised in ice cold buffer (20 mM HEPES, 5 mM MgCl2, 1 mg/ml Bacitracin, pH 7.1 and one Complete™ Protease Inhibitor Cocktail Tablet per 25 ml (Catalogue number 05 056 489 001 from Roche-applied-science)) and centrifuged at 25000 g at 4° C. for 10 minutes. The supernatant is discarded, and the pellets are re-suspended in the buffer, and then homogenised and centrifuged two more times. The pellets are pooled, and the final pellet is re-suspended in buffer, aliquoted and subsequently stored at −80° C.
(§6) The SPA Binding assay was performed in 96-well white opaque plates. Each well contained: 0.5 mg PVT-WGA SPA beads, MC1 receptor expressing membrane diluted to give approximately 10% specific tracer binding, 50.000 dpm ^125I-NDP-α-MSH and relevant dilutions of test compound. The final volume in each well was 200 μl. Assay buffer was 25 mM HEPES, pH 7.0, containing 1.5 mM CaCl2, 1 mM MgSO4, 0.21% (w/v) ovalbumin, 1 mM 1,10-Phenanthroline and one Complete™ Protease Inhibitor Cocktail Tablet per 100 ml. Plates were incubated overnight (22-24 hours) at room temperature before counting for 2 minutes per well, using a TopCount NXT scintillation counter. Displacement of radio ligand is measured as reduction in light emission from SPA beads, and IC50 values are calculated by nonlinear regression analysis of sigmoidal dose-response curves in GraphPad Prism (GraphPad Software, La Jolla, Calif., USA).

[4] = molecular target: T2, human MC4R; experiment: MC4 receptor binding assay (SPA, 125I-NDP-α-MSH); conditions: displacement of 125I-NDP-α-MSH, membranes from BHK cells stably expressing the human MC4 receptor, read-out: MC4R binding IC50
Experimental: In Vitro ^125I-NDP-α-MSH Binding to Recombinant BHK Cells Stably Expressing the Human MC4 Receptor (SPA Binding Assay).
In order to assess the binding affinity of the selected compounds for the human MC4R, competitive binding assays were performed with radiolabelled NDP-alpha MSH (^125I-NDP-α-MSH) and membranes from BHK cells stably expressing the human MC4 receptor.
as §5
as §6, with “MC4” for “MC1”

T2 sequence (P32245 whole entry): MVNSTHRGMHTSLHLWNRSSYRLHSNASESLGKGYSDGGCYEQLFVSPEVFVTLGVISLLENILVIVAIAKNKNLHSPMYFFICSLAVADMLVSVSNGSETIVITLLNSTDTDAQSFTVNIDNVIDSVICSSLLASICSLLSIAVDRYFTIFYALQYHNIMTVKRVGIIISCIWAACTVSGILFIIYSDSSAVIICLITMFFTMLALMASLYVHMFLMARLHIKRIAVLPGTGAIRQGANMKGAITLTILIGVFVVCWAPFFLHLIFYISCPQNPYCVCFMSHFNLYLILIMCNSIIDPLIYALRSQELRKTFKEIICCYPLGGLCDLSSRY
T1 sequence (Q01726 whole entry): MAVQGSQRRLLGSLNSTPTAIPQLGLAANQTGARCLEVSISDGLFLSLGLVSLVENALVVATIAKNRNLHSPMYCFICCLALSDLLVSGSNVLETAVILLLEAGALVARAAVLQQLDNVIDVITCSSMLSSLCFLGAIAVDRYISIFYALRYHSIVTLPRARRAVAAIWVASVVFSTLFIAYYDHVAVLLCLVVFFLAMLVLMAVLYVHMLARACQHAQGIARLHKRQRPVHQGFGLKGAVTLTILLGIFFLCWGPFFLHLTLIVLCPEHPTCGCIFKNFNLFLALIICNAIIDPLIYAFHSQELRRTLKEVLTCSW

Row | SMILES | pEC50 [1] | pEC50 [2] | pIC50 [3] | pIC50 [4]
1 | CCCC[C@H](NC(=O)[C@H](CCC(=O)O)NC(=O)[C@@H](CCCNC(=N)N)NC(=O)[C@@H]1CCCN1C(=O)[C@@H]1CCCN1C(=O)[C@@H]1CSSC[C@H](NC(=O)[C@H](CCCNC(=N)N)NC(C)=O)C(=O)N2CCC[C@H]2C(=O)N[C@@H](Cc2c[nH]cn2)C(=O)N[C@H](Cc2ccccc2)C(=O)N[C@@H](Cc2c[nH]cn2)C(=O)N[C@@H](Cc2c[nH]c3ccccc23)C(=O)N1)C(=O)N[C@H](CCCNC(N)N)C(=O)N[C@H](CCCNC(=N)N)C(N)=O [Chem. 5, Ac-Arg-c[Cys-Pro-His-D- Phe-His-Trp-Cys]-Pro- Pro-D-Arg-Glu-Nle-D- Arg-D-Arg-NH2] (Ac-RCPH[dF]HWCPP[dR]E[Nle][X1][dR]-NH2; disulfide 2-8) | 6.76 |  |  | 
2 | CCCC[C@H](NC(=O)[C@H](CCC(=O)O)NC(=O)[C@@H](CCCNC(=N)N)NC(=O)[C@@H]1CCCN1C(=O)[C@@H]1CCCN1C(=O)[C@@H]1CSSC[C@H](NC(=O)[C@H](CCCNC(=N)N)NC(C)=O)C(=O)N2CCC[C@H]2C(=O)N[C@@H](Cc2c[nH]cn2)C(=O)N[C@H](Cc2ccccc2)C(=O)N[C@@H](Cc2c[nH]cn2)C(=O)N[C@@H](Cc2c[nH]c3ccccc23)C(=O)N1)C(=O)N[C@H](CCCNC(N)N)C(=O)N[C@H](CCCNC(=N)N)C(N)=O [Chem. 6, Ac-D-Arg-c[Cys-Pro-His- D-Phe-His-Trp-Cys]-Pro- Pro-D-Arg-Glu-Nle-D- Arg-D-Arg-NH2] (Ac-RCPH[dF]HWCPP[dR]E[Nle][X1][dR]-NH2; disulfide 2-8) | 6.90 | 9.49 | 7.36 | 9.46
3 | CCCC[C@H](NC(=O)[C@H](CCC(=O)O)NC(=O)[C@@H](CCCNC(=N)N)NC(=O)[C@@H]1CCCN1C(=O)[C@@H]1CCCN1C(=O)[C@@H]1CSSC[C@H](NC(C)=O)C(=O)N2CCC[C@H]2C(=O)N[C@@H](Cc2c[nH]cn2)C(=O)N[C@H](Cc2ccc(Cl)cc2)C(=O)N[C@@H](Cc2c[nH]cn2)C(=O)N[C@@H](Cc2c[nH]c3ccccc23)C(=O)N1)C(=O)N[C@H](CCCNCN)C(=O)N[C@H](CCCNC(=N)N)C(N)=O [Chem. 10, Ac-c[Cys-Pro-His-D-Cl- Phe-His-Trp-Cys]-Pro- Pro-D-Arg-Glu-Nle-D- Arg-D-Arg-NH2] (Ac-CPH[dPhe(4-Cl)]HWCPP[dR]E[Nle][X3][dR]-NH2; disulfide 1-7) |  |  | 6.76 | 
4 | CCCC[C@H](NC(=O)[C@H](CCC(=O)O)NC(=O)[C@@H](CCCNC(=N)N)NC(=O)[C@@H]1CCCN1C(=O)[C@@H]1CCCN1C(=O)[C@@H]1CSSC[C@H](NC(C)=O)C(=O)N2CCC[C@H]2C(=O)N[C@@H](Cc2c[nH]cn2)C(=O)N[C@H](Cc2ccccc2)C(=O)N[C@@H](Cc2c[nH]cn2)C(=O)N[C@@H](Cc2c[nH]c3ccccc23)C(=O)N1)C(=O)N[C@@H](CCCNCN)C(=O)N[C@H](CCCNC(=N)N)C(N)=O [Chem. 15, Ac-c[Cys-Pro-His-D-Phe- His-Trp-Cys]-Pro-D- Arg-Glu-Nle-Arg-D-Arg- NH2] (Ac-CPH[dF]HWCPP[dR]E[Nle][X2][dR]-NH2; disulfide 1-7) |  |  |  | 9.06
5 | CCCC[C@H](NC(=O)[C@H](CCC(=O)O)NC(=O)[C@@H](CCCNC(=N)N)NC(=O)[C@@H]1CCCN1C(=O)[C@@H]1CCCN1C(=O)[C@@H]1CSSC[C@H](NC(C)=O)C(=O)N2CCC[C@H]2C(=O)N[C@@H](Cc2c[nH]cn2)C(=O)N[C@H](Cc2ccccc2)C(=O)N[C@@H](Cc2c[nH]cn2)C(=O)N[C@@H](Cc2c[nH]c3ccccc23)C(=O)N1)C(=O)N[C@H](CCCNC(=N)N)C(=O)N[C@H](CCCNC(=N)N)C(=O)N[C@H](CCCNC(=N)N)C(N)=O [Chem. 16, Ac-c[Cys-Pro-His-D-Phe- His-Trp-Cys]-Pro-Pro-D- Arg-Glu-Nle-D-Arg-D- Arg-D-Arg-NH2] (Ac-CPH[dF]HWCPP[dR]E[Nle][dR][dR][dR]-NH2; disulfide 1-7) |  | 9.80 | 6.86 | 9.57
6 | CC(=O)N[C@H](CCCNC(=N)N)C(=O)N[C@H]1CSSC[C@@H](C(=O)N2CCC[C@H]2C(=O)N2CCC[C@H]2C(=O)N[C@H](CCCNC(=N)N)C(=O)N[C@H](CCCNC(=N)N)C(N)=O)NC(=O)[C@H](Cc2c[nH]c3ccccc23)NC(=O)[C@H](Cc2c[nH]cn2)NC(=O)[C@@H](Cc2ccccc2)NC(=O)[C@H](Cc2c[nH]cn2)NC(=O)[C@@H]2CCCN2C1=O [Chem. 18, Ac-D-Arg-c[Cys-Pro-His- D-Phe-His-Trp-Cys]-Pro- Pro-D-Arg-D-Arg-NH2] (Ac-[dR]CPH[dF]HWCPP[dR][dR]-NH2; disulfide 2-8) | 6.75 | 9.72 | 7.16 | 9.41
